Laboratory results reported in ChEMBL document CHEMBL1201862, “PubChem BioAssay data set” (2004).
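A five-concentration, 48-hour dose response in 96-well plates underlies each endpoint, interpolated linearly between surrounding concentrations. GI50 is the concentration that inhibits growth by half.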 The source made the active and inactive calls. No stated cut-off is given here; in the data, active = GI50 up to about 1.1 µM and inactive = higher.

Key:
Assay in all cases: NCI anticancer screen, dose series, 48 h
[1] = system: MOLT-4
[2] = system: KM12
[3] = system: NCI-H23
[4] = system: PC-3
[5] = system: UO-31
[6] = system: DU-145
[7] = system: SR
[8] = system: ACHN
[9] = system: SNB-19
[10] = system: K562
[11] = system: HOP-92
[12] = system: T47D
[13] = system: MDA-N
[14] = system: HCT-116
[15] = system: UACC-62
[16] = system: BT-549
[17] = system: OVCAR-5
[18] = system: A549
[19] = system: OVCAR-4
[20] = system: COLO 205

Measured: GI50

O=C(O)CN(CCNC(=O)OCC1c2ccccc2-c2ccccc21)CCNC(=O)OCC1c2ccccc2-c2ccccc21
inactive: [1] 23.4 µM | [2] 18.6 µM | [3] 24.8 µM | [4] 24 µM | [5] 22.1 µM | [6] 19.9 µM | [7] 24.9 µM | [8] 20.6 µM | [9] 29.6 µM | [10] 19 µM | [11] 22.1 µM | [12] 20.1 µM | [13] 20 µM | [14] 17.7 µM | [15] 23.7 µM | [16] 27.2 µM | [17] 33.3 µM | [18] 23.3 µM | [19] 27.1 µM | [20] 20.8 µM

CC1(C)CC(Nc2ccc(Nc3ccccc3)cc2)CC(C)(C)N1
inactive: [1] 18.1 µM | [2] 44.1 µM | [3] 42.4 µM | [4] 11.5 µM | [5] 9.48 µM | [6] 23 µM | [7] 14.6 µM | [8] 13.5 µM | [9] 50.2 µM | [10] 13.2 µM | [11] 12 µM | [12] 16 µM | [13] 17 µM | [14] 35.6 µM | [15] 16.1 µM | [16] 12.7 µM | [17] 36.2 µM | [18] 45.9 µM | [19] 34.2 µM | [20] 16.8 µM

COc1ccc(-c2c(N)n(-c3cc(OC)cc(OC)c3)c(=O)c3cc([N+](=O)[O-])ccc23)cc1
inactive: [1] > 60.7 µM | [2] > 54.5 µM | [3] > 92 µM | [4] 31.3 µM | [5] > 23.3 µM | [6] > 100 µM | [7] 27.4 µM | [8] > 100 µM | [9] 28.3 µM | [10] 23.8 µM | [11] 3.21 µM | [12] 7.4 µM | [13] > 50.8 µM | [14] 21.9 µM | [15] 99.3 µM | [16] 19.2 µM | [17] > 100 µM | [18] > 100 µM | [19] 18.2 µM | [20] > 27.3 µM

CC(C)[Si](OC1=C(C(=O)Nc2ccccc2Cl)CCCCC1)(C(C)C)C(C)C
inactive: [1] > 100 µM | [2] > 100 µM | [3] > 100 µM | [4] > 100 µM | [5] > 100 µM | [6] > 100 µM | [7] > 100 µM | [8] > 100 µM | [9] > 100 µM | [10] > 100 µM | [11] > 100 µM | [12] > 100 µM | [13] > 100 µM | [14] > 100 µM | [15] > 100 µM | [16] > 100 µM | [17] 97.9 µM | [18] > 100 µM | [19] > 100 µM | [20] > 100 µM
